Measured values reported in patent US20120142645A1, “NEUROACTIVE STEROID COMPOSITIONS AND METHODS OF USE FOR LOWERING CHOLESTEROL” (priority 2009, published 2012).
Entries after “also recorded” stand apart in the source; their conditions may differ. Marks after values point to notes of the source that are not given here.

Tests used:
Format in all cases: in vivo, human
[1] = test system: patients with schizophrenia or schizoaffective disorder; test: SANS negative symptoms; randomized placebo-controlled 8-week trial of adjunctive pregnenolone (100, 300, then 500 mg/day oral); conditions: for SANS Total, change: text prints it as positive mean change (improvement); for SANS Total, difference PG vs placebo: points; for SANS Affect subscale score / SANS Alogia subscale score / SANS Anhedonia/asociality subscale score / SANS Attention subscale score / SANS Avolition/apathy subscale score / SANS Total score: mean ± SD, n = 8
Procedure: Study Design and Subjects. Disclosed herein is a placebo-controlled, double-blind, parallel group, randomized trial of adjunctive pregnenolone for the treatment of cognitive and negative symptoms in patients with schizophrenia or schizoaffective disorder. […] Patients received a total of 6 study visits, which took place every two weeks. […] The trial was conducted at a single site, the Durham Veterans Affairs Medical Center in Durham, N.C. The protocol was approved by the local institutional review board and conducted under FDA Investigational New Drug (IND) #71,768. The ClinicalTrials.gov number for this study is NCT00560937.
Subjects were outpatients between the ages of 18 and 65 with schizophrenia or schizoaffective disorder diagnosed by DSM-IV/DSM-IV-TR criteria utilizing the Structured Clinical Interview (First et al., 1996) and medical records. All subjects were between the ages of 18-65 and provided informed consent. Duration of illness was greater than one year for all enrolled patients. To be eligible for the trial, patients had to be taking a second-generation antipsychotic (aripiprazole, olanzapine, quetiapine, or risperidone) for at least 8 weeks, with no changes in antipsychotic dosing in the preceding 4 weeks. Patients receiving first-generation antipsychotics were excluded. Concomitant psychiatric medications were permissible (antidepressants, mood stabilizers, anticholinergics, other), provided that patients were receiving stable doses of all of these medications in the 4 weeks preceding the trial and throughout the entire duration of the study. Any change in psychiatric medications at any point during the study rendered a patient ineligible to continue participation.
(§1) During the screening visit (Visit 1), patients received a physical exam, vital signs, and electrocardiogram (EKG), as well as baseline laboratory measures consisting of serum electrolytes, glucose, creatinine, blood urea nitrogen (chemistry 7 panel), liver function tests, complete blood count (CBC), urinalysis, urine toxicology test, thyroid stimulating hormone (TSH), and prolactin, and serum pregnancy test if female. These tests were also repeated at the completion of the study (Visit 6). In addition, patients received an interim EKG 4 weeks post-randomization, as well as a serum pregnancy test if female (Visit 4). Patients also received a chemistry 7 panel, CBC, and liver function tests at Visits 2, 3, 4, and 5 (i.e., at all study visits). Psychiatric symptoms were assessed at baseline using the Scale for the Assessment of Negative Symptoms (Andreasen, 1983), the Positive and Negative Symptom Scale (PANSS; Kay et al., 1987), the Calgary Depression Rating Scale (CDRS; Addington et al., 1990), the Clinical Global Impressions Improvement (CGI-I) and Severity (CGI-S) scales, the Barnes Akathisia Scale (BAS; Barnes, 1989), the Simpson Angus Scale for Extrapyramidal Symptoms (SAS; Simpson & Angus, 1970), the Quality of Life Scale (QOL; Heinrichs et al., 1984), and the Hillside Side Effects Scale. One research nurse with five years of experience in the conduction of schizophrenia clinical trials completed both psychiatric and cognitive assessments throughout the study, and was trained to one point of divergence on each PANSS item.

[2] = test system: patients with schizophrenia or schizoaffective disorder; test: Serum analytes and EKG QTc interval at screening and final visit; same trial; conditions: for Serum LDL levels post-treatment compared to baseline: paired t-test p=0.002; for EKG QTc interval / Serum Cholesterol / Serum Glucose / Serum Prolactin / Serum TSH / Serum Triglycerides / Serum LDL / Serum HDL: mean ± SD; for Serum LDL: n = 7; for Serum HDL: n = 8
From the text: as §1

[3] = test system: patients with schizophrenia or schizoaffective disorder; test: Side effect profile and tolerability (Hillside AE Form); same trial
From the text: as §1

[4] = Difference in change from Week 0 to Week 8
[5] = change from baseline pre-randomization, n = 9
[6] = change from baseline pre-randomization, n = 9, mild in all subjects
[7] = change from baseline pre-randomization, n = 9, mild in all subjects, listed as pregnenolone

Structure (SMILES): CC(=O)[C@H]1CC[C@H]2[C@@H]3CC=C4C[C@@H](O)CC[C@]4(C)[C@H]3CC[C@]12C [PG, pregnenolone]
- SANS Affect subscale, change ([1]; Change from Week 0 to Week 8): −4.3 ± 1.7
- SANS Alogia subscale, change ([1]; Change from Week 0 to Week 8): −1.9 ± 0.8
- SANS Anhedonia/asociality subscale, change ([1]; Change from Week 0 to Week 8): −2.4 ± 1.3
- SANS Attention subscale, change ([1]; Change from Week 0 to Week 8): −1.6 ± 0.4
- SANS Avolition/apathy subscale, change ([1]; Change from Week 0 to Week 8): −0.3 ± 0.3
- SANS Total, change ([1]; Change from Week 0 to Week 8): −10.4 ± 10.2
- SANS Total, change ([1]; Change from Week 0 to Week 8, listed as pregnenolone): 10.38±10.18
- SANS Affect subscale, difference PG vs placebo [1, 4]: −4.5 ± 1.9
- SANS Alogia subscale, difference PG vs placebo [1, 4]: −1.5 ± 0.8
- SANS Anhedonia/asociality subscale, difference PG vs placebo [1, 4]: −1.6 ± 1.3
- SANS Attention subscale, difference PG vs placebo [1, 4]: −0.5 ± 0.5
- SANS Avolition/apathy subscale, difference PG vs placebo [1, 4]: 0.1 ± 0.6
- SANS Total, difference PG vs placebo [1, 4]: −8.0 ± 3.7
- SANS Total, difference PG vs placebo ([1]; Difference in change from Week 0 to Week 8, listed as Pregnenolone): approximately 8
- SANS Affect subscale score ([1]; Week 0 (baseline)): 13.4 ± 5.0
- SANS Alogia subscale score ([1]; Week 0 (baseline)): 8.8 ± 3.6
- SANS Anhedonia/asociality subscale score ([1]; Week 0 (baseline)): 12.0 ± 4.5
- SANS Attention subscale score ([1]; Week 0 (baseline)): 5.6 ± 1.1
- SANS Avolition/apathy subscale score ([1]; Week 0 (baseline)): 8.3 ± 2.5
- SANS Total score ([1]; Week 0 (baseline)): 50.8 ± 12.2
- SANS Total score ([1]; Week 0 (baseline), listed as pregnenolone): 47.56±12.09
- SANS Affect subscale score ([1]; Week 4): 14.3 ± 3.2
- SANS Alogia subscale score ([1]; Week 4): 7.8 ± 3.2
- SANS Anhedonia/asociality subscale score ([1]; Week 4): 10.4 ± 4.1
- SANS Attention subscale score ([1]; Week 4): 5.3 ± 1.0
- SANS Avolition/apathy subscale score ([1]; Week 4): 8.1 ± 1.0
- SANS Total score ([1]; Week 4): 45.8 ± 8.8
- SANS Affect subscale score ([1]; Week 8): 11.9 ± 0.4
- SANS Alogia subscale score ([1]; Week 8): 6.9 ± 2.1
- SANS Anhedonia/asociality subscale score ([1]; Week 8): 9.6 ± 3.5
- SANS Attention subscale score ([1]; Week 8): 4.0 ± 0
- SANS Avolition/apathy subscale score ([1]; Week 8): 8.0 ± 0.5
- SANS Total score ([1]; Week 8): 40.4 ± 3.5
- EKG QTc interval following treatment ([2]; 8 weeks of pregnenolone): no change
- Laboratory parameters including glucose, triglycerides, HDL, TSH, and prolactin, post-treatment compared to baseline ([2]; 8 weeks of pregnenolone): no significant changes
- Serum LDL levels post-treatment compared to baseline ([2]; 8 weeks of pregnenolone, listed as Pregnenolone): significantly decreased
- Serum LDL levels post-treatment compared to baseline ([2]; 8 weeks of pregnenolone, listed as pregnenolone): significantly reduced; also recorded: significantly decreased
- Cholesterol levels following treatment compared to baseline ([2]; 8 weeks of pregnenolone, paired t-test p=0.008): significantly decreased
- EKG QTc interval ([2]; Screening): 414.8 ± 19.2 ms
- Serum Cholesterol ([2]; Screening): 185.8 ± 43.3 mg/100 ml
- Serum Glucose ([2]; Screening): 117.9 ± 36.2 mg/100 ml
- Serum Prolactin ([2]; Screening): 7.69 ± 5.91 ng/mL
- Serum TSH ([2]; Screening): 1.45 ± 0.64 μIU/ml
- Serum Triglycerides ([2]; Screening): 194.3 ± 87.8 mg/100 ml
- Serum LDL ([2]; Screening): 119.1 ± 26.0 mg/100 ml
- Serum HDL ([2]; Screening): 39.3 ± 16.5 mg/100 ml
- EKG QTc interval ([2]; Week 8): 406.8 ± 20.9 ms
- Serum Glucose ([2]; Week 8): 119.0 ± 33.5 mg/100 ml
- Serum Prolactin ([2]; Week 8): 7.85 ± 6.47 ng/mL
- Serum TSH ([2]; Week 8): 1.26 ± 0.72 μIU/ml
- Serum Triglycerides ([2]; Week 8): 237.6 ± 119.5 mg/100 ml
- Serum LDL ([2]; Week 8, p 0.002 vs screening): 90.9 ± 29.4 mg/100 ml
- Serum HDL ([2]; Week 8): 37.0 ± 17.4 mg/100 ml
- Serum Cholesterol ([2]; Week 8, p 0.008 vs screening): 166.6 ± 36.2 mg/100 ml
- Glucose levels, serum electrolyte panels, thyroid stimulating hormone, prolactin levels, and liver function tests ([2]; during the 8-week trial): unchanged
- Serious adverse event related to study medication ([3]; 8-week trial): No patients receiving pregnenolone experienced a serious adverse event
- Side effect: Akathisia [3, 5]: 0 N (%)
- Side effect: All Other Side Effects [3, 5]: 0 N (%)
- Side effect: Blurred Vision [3, 5]: 0 N (%)
- Side effect: Diarrhea [3, 5]: 0 N (%)
- Side effect: Drowsiness [3, 5]: 0 N (%)
- Side effect: Excitation/Agitation [3, 5]: 0 N (%)
- Side effect: Headache [3, 5]: 0 N (%)
- Side effect: Impaired Sexual Performance [3, 5]: 0 N (%)
- Side effect: Insomnia [3, 5]: 0 N (%)
- Side effect: Joint Pain/Stiffness [3, 5]: 0 N (%)
- Side effect: Malaise [3, 5]: 0 N (%)
- Side effect: Nasal Congestion [3, 5]: 0 N (%)
- Side effect: Peripheral Edema [3, 5]: 0 N (%)
- Side effect: Rigidity [3, 5]: 0 N (%)
- Side effect: Sweating [3, 5]: 0 N (%)
- Side effect: Tremor [3, 5]: 0 N (%)
- Side effect: Hypertension ([3]; change from baseline pre-randomization, n = 9, mild (<145/90)): 1 (11%)^b N (%)
- Side effect: Cold Extremities [3, 6]: 1 (11%)^a N (%)
- Side effect: Decreased Interest in Sex [3, 6]: 1 (11%)^a N (%)
- Side effect: Disorientation (to date, address, mayor, or MD name) [3, 6]: 2 (22%)^a N (%)
- Side effect: Dry mouth [3, 6]: 1 (11%)^a N (%)
- Side effect: Muscle Pain/Stiffness [3, 6]: 1 (11%)^a N (%)
- Side effect: Restlessness [3, 6]: 2 (22%)^a N (%)
- Side effect: Cold Extremities [3, 7]: one report of mild cold extremities; also recorded: one instance of mild cold extremities
- Side effect: Muscle Pain/Stiffness [3, 7]: one report of mild muscle pain/stiffness; also recorded: one instance of mild muscle pain/stiffness
- Side effect: Restlessness [3, 7]: two reports of mild restlessness; also recorded: two instances of mild restlessness
- Tolerability ([3]; doses up to 500 mg/day, 8 weeks): very well-tolerated
- Weight gain, blood pressure, or pulse rate changes ([3]; during the course of the study): did not demonstrate significant weight gain, blood pressure, or pulse rate changes
